Assay: Gastric model: incubation in simulated gastric fluid (SGF), LOOH (FOX assay) and MDA, oxidation resistance score
Format: physicochemical
Conditions: conventional krill oil with high TMAO, three concentrations of Astaxanthin (increased more than 10 fold), 180 minutes
Experimental: Hydroperoxide level was tested by FOX analysis. Measurements were conducted at 562 nm, the absorbance of the Ferric-Xylenol Orange Complex. (Gay 1999).
Malondialdehyde (MDA) level was tested by modified TBARS test. The thiobarbituric acid-MDA adduct was quantified by HPLC (Fenaille 2001) or spectrophotometer.
Marine lecithin preparations according to the invention and conventional marine lecithins were incubated while shaken in simulated gastric fluid (SGF) which contains 2 mg/ml NaCl, 3.2 mg/ml HCl 37%, and 7 mg/ml Pepsine and with 200 μM Ascorbic acid and 50 μM FeCl3 as oxidation catalysts, at 37° C. for 180 min. The final concentration of the oils was 10 mg/ml. Peroxidation markers hydroperoxide (LOOH, by Ferric-Xylenol Orange Complex—FOX assay) and malondialdehyde (MDA-TBA2 HPLC analysis) were analyzed following 180 minutes of incubation in the gastric model.
In order to rank the oils according to their resistance to oxidation in gastric model, a score scale was developed. […]
Conventional krill oil, containing high concentration of TMAO, was enriched with three concentrations of Astaxanthin and incubated in simulated gastric fluid (SGF) as described in Example 3. Hydroperoxide as peroxidation marker (LOOH, by Ferric-Xylenol Orange Complex—FOX assay—see method above) was analyzed following 180 minutes. […]

change in LOOH levels by Astaxanthin enrichment: only minimal change in LOOH levels
Compound: CC1=C(/C=C/C(C)=C/C=C/C(C)=C/C=C/C=C(C)/C=C/C=C(C)/C=C/C2=C(C)C(=O)[C@@H](O)CC2(C)C)C(C)(C)C[C@H](O)C1=O [Astaxanthin]

From patent US20180125898A1, “MARINE LECITHIN PREPARATIONS WITH ENHANCED OXIDATION RESISTANCE” (AKER BIOMARINE ANTARCTIC AS, priority 2014, published 2018)
